According to ChEMBL document CHEMBL1159314, “Eupha-7,9(11),24-trien-3beta-ol ("antiquol C") and other triterpenes from Euphorbia antiquorum latex and their inhibitory effects on Epstein-Barr virus activation” (J Nat Prod, 2002):

Experiments:
Assay type in all cases: cell-based
Raji [1] = test: Inhibition of TPA-induced EBV-early antigen activation in human Raji cells at 1000 molar ratio after 48 hrs relative to TPA; design: scale not given: the % may be the effect or the level left; settings: human gammaherpesvirus 4
Raji [2] = test: Inhibition of TPA-induced EBV-early antigen activation in human Raji cells at 500 molar ratio after 48 hrs relative to TPA; design: scale not given: the % may be the effect or the level left; settings: human gammaherpesvirus 4
Raji [3] = test: Inhibition of TPA-induced EBV-early antigen activation in human Raji cells at 100 molar ratio after 48 hrs relative to TPA; design: scale not given: the % may be the effect or the level left; settings: human gammaherpesvirus 4
Raji [4] = test: Inhibition of TPA-induced EBV-early antigen activation in human Raji cells at 10 molar ratio after 48 hrs relative to TPA; design: scale not given: the % may be the effect or the level left; settings: human gammaherpesvirus 4
[5] = Cytotoxicity against human Raji cells assessed as cell viability at 1000 molar ratio after 48 hrs by trypan blue assay; settings: read-out: Activity

CC(C)=CCC[C@]1(C)CC[C@]2(C)C3=CC[C@H]4C(C)(C)[C@@H](O)CC[C@]4(C)[C@H]3CC[C@@]2(C)C1
Activity (Raji [1]): 2.2% | Activity (Raji [2]): 33.8% | Activity (Raji [3]): 79.4% | Activity (Raji [4]): 97.2% | viability at 48 h, 1000 molar ratio [5]: 70%

CC1=C(/C=C/C(C)=C/C=C/C(C)=C/C=C/C=C(C)/C=C/C=C(C)/C=C/C2=C(C)CCCC2(C)C)C(C)(C)CCC1
Activity (Raji [1]): 8.6% | Activity (Raji [4]): 100%

CC(C)=CCC[C@@H](C)[C@@H]1CC[C@]2(C)C3=CC[C@H]4C(C)(C)[C@@H](O)CC[C@]4(C)C3=CC[C@@]12C [ANTIQUOL C]
Activity (Raji [1]): 0% | Activity (Raji [2]): 28.2% | Activity (Raji [3]): 75% | Activity (Raji [4]): 92.8% | viability at 48 h, 1000 molar ratio [5]: 70%

CC(C)=CCC/C(C)=C/CC/C(C)=C/CC/C=C(\C)CC[C@@H]1C(C)=CC[C@H](O)C1(C)C [CAMELLIOL C]
Activity (Raji [1]): 20.1% | Activity (Raji [2]): 51.5% | Activity (Raji [3]): 86.3% | Activity (Raji [4]): 100% | viability at 48 h, 1000 molar ratio [5]: 70%

CC(C)=CCC[C@@H](C)[C@@H]1CC[C@]2(C)C3=C(CC[C@@]12C)[C@@]1(C)CC[C@H](O)C(C)(C)[C@@H]1CC3 [EUPHOL]
Activity (Raji [1]): 0% | Activity (Raji [2]): 29.8% | Activity (Raji [3]): 75.7% | Activity (Raji [4]): 93.5% | viability at 48 h, 1000 molar ratio [5]: 70%

C=C(CC[C@H](C)[C@@H]1CC[C@]2(C)C3=C(CC[C@@]12C)[C@@]1(C)CC[C@H](O)C(C)(C)[C@@H]1CC3)C(C)C [EUPHORBOL]
Activity (Raji [1]): 0% | Activity (Raji [2]): 32.6% | Activity (Raji [3]): 77.9% | Activity (Raji [4]): 95.8% | viability at 48 h, 1000 molar ratio [5]: 70%

CC(C)=CCC[C@@H](C)[C@@H]1CC[C@]2(C)[C@H]3CCC(=C(C)C)[C@@H](CCCO)[C@]3(C)CC[C@@]12C [ISOHELIANOL]
Activity (Raji [1]): 0% | Activity (Raji [2]): 25.8% | Activity (Raji [3]): 72.4% | Activity (Raji [4]): 95.7% | viability at 48 h, 1000 molar ratio [5]: 70%
